In brackets after ≈: the same amount, converted by molar mass. Where two headings read alike, the source gives them in different places.
Columns and labels:
[1] = Microsomal metabolic stability, mouse; type: in vitro ADME; conditions: pH 7.4; mouse liver microsomes
[2] = system: JJ012 (R132G) 3D cellular spheroids; assay: 2-HG production, spheroids (3D), JJ012; type: cell-based; conditions: Homo sapiens; 3D spheroid, mass spec
From the text: To evaluate the effect of mIDH1 inhibitors in more relevant models of solid tumors, we adapted a 3-dimensional (3D) multicellular tumor spheroid assay to monitor spheroid formation and 2-HG production. Small molecules can have diminished efficacy in multicellular tumor spheroid models due to limited penetration and the heterogeneous nature of the 3D tumor spheroid[39],[40]. We began by testing the 6 aforementioned cell lines for their ability to form spheroids in ultra-low attachment plates at varying cell concentrations (1000–5000 cells/well). […] Overall, spheroids produced less extracellular 2-HG than cells cultured in monolayer (Fig. 7B).
Using these simple 3D models of solid tumors, we assessed the ability of inhibitors to reduce 2-HG production.
2-HG production: Cells grown as spheroids (3D)
(RBE) cells/well/150 μ L to form spheroids. Of note, we were not able to obtain spheroids using SNU1079 cells. Plates were sealed with gas permeable membranes, centrifuged at 40 rcf for 1 min, and incubated at 37°C, 5% CO2, 90% RH for 96 (HT108 0, U87 and JJ01 2) or 4 8 (RBE) h r. Cells were washed (by remo ving 10 0 μL of exhausted media and re placing it with 100 μL of growth media, twice) and treated with 50 μL of a solution of media containing the indicated compounds. Each compound was tested as an 8-point dilution series ranging from 5 μM to 2.3 nM.
After 96 hr of t reatment, 100 μL of the exhausted media was collected and snap frozen on dry ice. Samples were analyzed by LC -MS for 2- HG concentrations using Rapidfire /Mass Spectrometry (Quintara) ( 4) . Plates were first imaged on the Celigo Imaging Cytometer (Ne xcelom Bioscience) to quantify area of each spheroid. Cell viability was subsequently measured using the CellTiter-Glo assay with some modifications: 50 μL of a solution of CellTiter-Glo reagent containing a final concentration of 0.025 % Trypsin (Thermo Sci entific) was added to each well and plates were shaken at 500 rpm for 30 min before reading.

[3] = Human plasma protein binding (rapid equilibrium dialysis, Cyprotex); type: in vitro ADME; conditions: for fraction unbound at 4 h, 5 µM: human, plasma, human plasma
[4] = High-throughput PAMPA (GIT), pH 7.4; type: in vitro ADME; conditions: read-out: HT PAMPA Permeability
From the text: In Vitro Physicochemical and Drug Metabolism Studies:
High-Throughput PAMPA assay
The stirring double- sin k PAMPA method patented by pION Inc. (Billeri ca, MA) was employed to determine the permeability of compounds via PAMPA passive diffusion. The PAMPA lipid membrane consisted of an artificial membrane of a proprietary lipid mixture and dodecane (Pion Inc.), optimized to predict gastrointestinal tract (GIT) passive diffusion permeability, was immobilized on a plastic matrix of a 96 well “donor” filter plate placed above a 96 well “a cceptor” plate. A pH 7.4 solution was used in both donor and acceptor wells. The test articles, stocked in 10 mM DMSO solutions, were diluted to 0.05 mM in aqueous buffer (pH 7.4) , and the concentration of DMSO was 0.5% in the final solution. During the 30-min permeation period at room temperature, the test samples in the donor compartment were stirred using the Gutbox te chnology (Pion Inc.) to reduce the unstirred water layer. The test article concentrations in the donor and acceptor compartments were measured using an UV plate reader (Nano Quant, Infinite 200 […]
PRO, Tecan Inc., Männedorf, Switzerland). Permeability calculations were performed using Pion Inc. software and were expressed in units of 10-6 cm/s. […]

[5] = biological target: T1, R172Q mIDH2 (Homo sapiens, UniProt P48735, R172Q); assay: mIDH2-R172Q enzyme assay (Reaction Biology), diaphorase/resazurin coupled; conditions: for Emax: read-out: IDH2 R172Q % EMax
T1 sequence (P48735 40-452 R172Q): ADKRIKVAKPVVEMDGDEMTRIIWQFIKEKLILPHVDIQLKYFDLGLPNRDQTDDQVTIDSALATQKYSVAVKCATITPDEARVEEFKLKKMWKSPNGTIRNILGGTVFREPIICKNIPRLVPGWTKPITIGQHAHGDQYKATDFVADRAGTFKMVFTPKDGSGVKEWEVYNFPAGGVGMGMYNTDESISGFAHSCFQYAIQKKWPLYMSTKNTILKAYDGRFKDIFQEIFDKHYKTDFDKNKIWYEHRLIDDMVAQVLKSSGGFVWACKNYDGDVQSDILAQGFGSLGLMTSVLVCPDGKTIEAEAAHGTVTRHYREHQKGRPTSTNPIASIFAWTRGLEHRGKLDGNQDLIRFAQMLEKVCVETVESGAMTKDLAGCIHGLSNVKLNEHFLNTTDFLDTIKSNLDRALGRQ

[6] = Microsomal metabolic stability, rat; type: in vitro ADME; conditions: pH 7.4; rat liver microsomes
[7] = High-throughput kinetic solubility (µSOL), pH 7.4; type: physicochemical; conditions: aqueous solution pH 7.4, pH 7.4, aqueous buffer, kinetic from dmso stock; read-out: HT Kinetic Solubility, Solubility
Description: High-Throughput kinetic solubility test assay
Pion’s patented µSOL assay for kinetic solubility determination was used. In this assay, the classical saturation shake- flask solub ility method was adapted to a 96-well microtiter plate format and a co-solvent method with n- propanol as the […] was utilized. Test compounds were prepared in 10 mM DMSO solutions (45 µ L), and diluted with the co-solve nt to a final drug conce ntration of […]
Samples are incubated at room temperature for 6 hrs t o achieve equilibrium. The samples were then filtered to remove any precipitate formed. The concentrat ion of the compound in the filtrate was measured by UV ab sorbance. […]
used for quantitation of unknown drug concent ration in filtrate. Spectroscopically pure 1- Propanol was used as acosolvent to suppress precipitation in the reference

[8] = read-out: Human Plasma Protein Binding % Bound (converted)
[9] = read-out: Human Plasma Protein Binding % Unbound

| SMILES | half-life at 1 µM [1] [min] | EC50 [2] [nM] | Emax [2] [%] | fraction unbound at 4 h, 5 µM [3, 8] | fraction unbound at 4 h, 5 µM [3, 9] | Papp at 30 min, 0.05 mM [4] [×10⁻⁶ cm/s] | EC50 [5] [nM] | Emax [5] [%] | half-life at 1 µM [6] [min] | solubility kinetic at 6 h [7] [µM] | IC50 [5] [nM] | unbound fraction in human plasma ([3]; 5 µM) |
| --- | --- | --- | --- | --- | --- | --- | --- | --- | --- | --- | --- | --- |
| Cc1ccccc1C(C(=O)NC1CCCCC1)N(C(=O)Cn1cnc2ccccc21)c1cccc(F)c1 (centres unmarked) [Agios 135] | 2.9 | 236 | 95.6 | 0.002 | 0.00167 | 787 | > 30000 | 1 | 1.4 | 5.8 (≈ 2.89 µg/mL) |  |  |
| COc1c(C)cc(NC(=O)c2nn(Cc3ccc(F)cc3)c3c2CN(C(=O)c2ccc[nH]2)C[C@]3(C)C(N)=O)cc1C [GSK864] | 12.7 | 360 | 102 | 0.002 | 0.00206 | 365 | 22 | 63 | 72.7 | 0.175 (≈ 0.0978 µg/mL) | 183 |  |
| N#Cc1ccnc(N2C(=O)CC[C@H]2C(=O)N(c2cncc(F)c2)[C@H](C(=O)NC2CC(F)(F)C2)c2ccccc2Cl)c1 [AG-120, Ivosidenib] | > 120 | 24 | 79.8 | 0.088 | 0.0876 | 537 | > 30000 | 11.1 | > 120 | 105 (≈ 61.3 µg/mL) |  | ~ 10 % unbound |
| CC(=O)N1CCN(Cc2ccc([C@H](C)Nc3nccc(N4C(=O)OC[C@@H]4C(C)C)n3)cc2)CC1 [Norvartis 556] | 10.3 | 678 | 104 | 0.144 | 0.144 | 390 | > 30000 | 6.6 | 24.5 | 148 (≈ 69.1 µg/mL) |  |  |
| Cc1ccccc1C(C(=O)NC1CCCCC1)N(C(=O)Cn1ccnc1C)c1cccc(F)c1 (centres unmarked) [AGI-5198] | 3.5 | 428 | 113 | 0.033 | 0.0326 | > 1400 | > 30000 | 6 | 4.4 | 26.2 (≈ 12.1 µg/mL) |  |  |
| Cc1ccccc1[C@@H](C(=O)NC1CCCC1)N(C(=O)Cn1cnc2ccccc21)c1cccc(F)c1 [ML309] | 2.7 | 218 | 92 | 0.004 | 0.00355 | > 1700 | > 30000 | 10.1 | 1.8 | 26.2 (≈ 12.7 µg/mL) |  |  |
